{"source": "patent US20010004528A1", "about": "“USE OF 13C NUCLEAR MAGNETIC RESONANCE TO DETECT BINDING TO TARGET MOLECULES” (priority 1995, published 2001)", "molecular_target": "T1, FKBP (Homo sapiens, UniProt P62942)", "T1 construct": "made in house; host or cells: E. coli", "T1 sequence (P62942 whole entry)": "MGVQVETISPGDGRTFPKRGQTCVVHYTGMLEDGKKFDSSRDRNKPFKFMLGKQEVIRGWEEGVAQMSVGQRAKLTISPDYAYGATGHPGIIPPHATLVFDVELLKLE", "assay": "Screening for ligands using 13C/1H NMR correlation spectra of 13C-enriched FKBP", "type": "binding", "experimental": "Uniformly ^13C-enriched FKBP was prepared in accordance with the procedures detailed above. […]\nTwo-dimensional ^13C/^1H NMR spectra were generated at 30° C. on a Bruker DRX500 NMR spectrometer equipped with a triple resonance probe and Bruker sample changer. The ^13C/^1H HSQC spectra were acquired as 64×1024 complex points using sweep widths of 3771 Hz (^13C, t1) and 8333 Hz (^1H, t2). A delay of 1 second between scans and 8 scans per free induction decay (fid) were employed in the data collection. All NMR spectra were processed and analyzed on Silicon Graphics computers.\nA first two-dimensional ^13C/^1H NMR correlation spectrum was acquired for the ^13C-labeled FKBP target molecule as described above. The FKBP target was then exposed to a library mixture of test compounds. Stock solutions of the compounds were made at 100 mM and 1 M. In addition, a combination library was prepared which contained 8-10 compounds per sample at a concentration of 100 mM for each compound.\nThe pH of the 1 M stock solution was adjusted with acetic acid and ethanolamine so that no pH change was observed upon a 1/10dilution with a 100 mM phosphate buffered solution (pH 7.0). It is important to adjust the pH, because small changes in pH can alter the chemical shifts of the biomolecules and complicate the interpretation of the NMR data.\nThe compounds in the library were selected on the basis of size (molecular weight=100-300) and molecular diversity. The molecules in the collection had different shapes (for example, flat aromatic rings(s), puckered aliphatic rings(s), straight and branched chain aliphatics with single, double, or triple bonds) and diverse functional groups (for example, carboxylic acids, esters, ethers, amines, aldehydes, ketones, and various heterocyclic rings) to maximize the possibility of discovering compounds that interact with widely diverse binding sites. […]"}
{"smiles": "c1ccc(-c2ncc[nH]2)cc1", "note": "[2-phenylimidazole]", "values": [{"measurement": "involvement of alanyl residues in binding (13C/1H correlation spectra)", "setting": "FKBP selectively 13C labeled at alanyl residues, 2-phenylimidazole 0.25 mM", "value": "none of the alanyl residues are involved in the binding"}, {"measurement": "binding site residues from chemical shift changes in 13C/1H correlation spectra", "setting": "FKBP selectively 13C/15N/2H labeled at valinyl and leucyl residues, 2-phenylimidazole 0.25 mM", "value": "binding is occurring at or near the Leu^97 and Val^55 residues"}, {"measurement": "binding to FKBP detected by chemical shift changes in 13C/1H correlation spectra", "setting": "uniformly 13C-enriched FKBP 0.2 mM, compound about 0.25 mM, phosphate buffer pH 6.5, 30° C.", "value": "found to bind to FKBP"}]}
